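These data come from cells grown in 96-well plates and exposed to compound for 48 hours at five concentrations. At the GI50, growth is halved. TGI marks complete inhibition of growth.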

Test systems include A498 renal; CAKI-1 renal; HCC-2998 colon; HCT-15 colon; M14 melanoma; MOLT-4 leukemia; NCI-H23 lung; NCI/ADR-RES ovarian; OVCAR-3 ovarian; SR leukemia.
Common to all, as to assay: NCI-60 cell line screen, 48 h

Regarding `COc1nc2c(c(=O)n1C)N=C(c1ccc(Cl)cc1)CC(c1ccccc1)N2` (stereo not given), the TGI with A498 renal was greater than 100 µM; in the test with CAKI-1 renal, 74.5 µM; in the test on HCC-2998 colon, 35.8 µM; in the test on HCT-15 colon, 30.4 µM; in the test with M14 melanoma, greater than 100 µM; in the test on MOLT-4 leukemia, 49.6 µM. Besides, the TGI is 69.1 µM in the test with NCI-H23 lung, greater than 100 µM in the test with NCI/ADR-RES ovarian, greater than 100 µM in the test on OVCAR-3 ovarian and greater than 100 µM with SR leukemia.

Consider `ClCc1cccc(CSc2ncnc3c2ncn3Cc2cccc(CCl)c2)c1`, for which the GI50 in the test with A498 renal was 11.1 µM; with CAKI-1 renal, 1.92 µM; with HCC-2998 colon, 1.71 µM; in the test with HCT-15 colon it was 1.71 µM; in the test with M14 melanoma, 1.71 µM; in the test with MOLT-4 leukemia, 3.65 µM. Besides, the GI50 is 1.75 µM with NCI-H23 lung, 2.11 µM in the test with NCI/ADR-RES ovarian, 1.86 µM with OVCAR-3 ovarian and 2.82 µM in the test on SR leukemia. In addition, the TGI came to 23.6 µM in the test with A498 renal; 4.34 µM in the test on CAKI-1 renal; 3.13 µM in the test on HCC-2998 colon; 3.42 µM with HCT-15 colon; 3.23 µM with M14 melanoma; 17.2 µM with MOLT-4 leukemia. For the same molecule, the TGI in the test with NCI-H23 lung came to 3.88 µM; in the test on NCI/ADR-RES ovarian, 6.83 µM; in the test on OVCAR-3 ovarian it was 3.31 µM; with SR leukemia, 9.89 µM.

With `CSc1c(CC(=O)Nc2ccc(Cl)cc2)n(Cc2ccccc2)c2ccccc12`, the TGI with A498 renal was 25.9 µM; in the test on CAKI-1 renal, greater than 100 µM; in the test on HCC-2998 colon, 88 µM; in the test on HCT-15 colon, greater than 100 µM; with M14 melanoma, greater than 100 µM; with MOLT-4 leukemia, greater than 100 µM. In addition, the TGI in the test on NCI-H23 lung, in the test with NCI/ADR-RES ovarian, with OVCAR-3 ovarian and in the test on SR leukemia was greater than 100 µM throughout.

In the case of `CCCN1C(=O)/C(=C\c2ccc(OC)c(OC)c2)SC1=Nc1ccccc1`, the TGI with A498 renal, in the test on CAKI-1 renal, with HCC-2998 colon, with HCT-15 colon, in the test with M14 melanoma and with MOLT-4 leukemia was greater than 100 µM throughout. The TGI in the test with NCI-H23 lung, in the test with NCI/ADR-RES ovarian, in the test with OVCAR-3 ovarian and in the test on SR leukemia was greater than 100 µM each time.

For the molecule `CC(C)(C)OC(=O)CN1CCN(CC(=O)N2CCN(C(=O)OCc3ccccc3)CC2)CCN(CC(=O)OC(C)(C)C)CCN(CC(=O)N2CCN(C(=O)OCc3ccccc3)CC2)CC1`, the TGI in the test on A498 renal worked out at 35.7 µM; with CAKI-1 renal it was 23.4 µM; in the test on HCC-2998 colon, 6.55 µM; in the test with HCT-15 colon, 19.1 µM; in the test on M14 melanoma, 14.3 µM; in the test with MOLT-4 leukemia, 5.05 µM. The TGI in the test with NCI-H23 lung was 12.5 µM; with NCI/ADR-RES ovarian, 34.4 µM; with OVCAR-3 ovarian, 13.1 µM; in the test on SR leukemia, 1.75 µM.

As to `CC/C=C/C[C@H](O)[C@H]1C[C@H]2O[C@H](CC(=O)OC)C[C@H]2O1`, the TGI with A498 renal, in the test with CAKI-1 renal, with HCC-2998 colon, in the test with HCT-15 colon, in the test on M14 melanoma and in the test on MOLT-4 leukemia was greater than 100 µM in each case. The TGI in the test on NCI-H23 lung, in the test with NCI/ADR-RES ovarian, in the test on OVCAR-3 ovarian and in the test on SR leukemia was greater than 100 µM each time.

Take `CCN(CC)c1ccc2cc(C(=O)Nc3ccc(C)cc3)c(=N)oc2c1`: the TGI with A498 renal, in the test with CAKI-1 renal, in the test with HCC-2998 colon, with HCT-15 colon, in the test with M14 melanoma and with MOLT-4 leukemia was greater than 100 µM in each case. Moreover, the TGI with NCI-H23 lung, in the test with NCI/ADR-RES ovarian, with OVCAR-3 ovarian and in the test with SR leukemia was greater than 100 µM each time.

Take `CO[C@@H]1C[C@H](OC(N)=O)[C@@H]2C=C[C@@H]3/C=C(C)/C=C/[C@@H](C)[C@H](/C(C)=C/[C@@H](C)NC(C)=O)OC(=O)/C=C/C=C(C)\C=C\[C@]3(C)[C@@H]2C1`: the TGI with A498 renal came out at 0.0867 µM; in the test with CAKI-1 renal, 0.167 µM; with HCC-2998 colon, 0.664 µM; in the test on HCT-15 colon, 0.717 µM; in the test on M14 melanoma, 0.912 µM; with MOLT-4 leukemia, 13.8 µM. Further, the TGI with NCI-H23 lung was determined as 2.84 µM; in the test on NCI/ADR-RES ovarian, 2.69 µM; with OVCAR-3 ovarian, 0.251 µM; with SR leukemia, 5.11 µM.

As to `CSCCCNC(=O)c1csc(-c2csc(CCNC(=O)CNC(=O)CNC(=O)OC(C)(C)C)n2)n1`, the TGI in the test with A498 renal, in the test on CAKI-1 renal, in the test with HCC-2998 colon, in the test with HCT-15 colon, with M14 melanoma and with MOLT-4 leukemia was greater than 100 µM in each case. Moreover, the TGI in the test with NCI-H23 lung, in the test on NCI/ADR-RES ovarian, in the test on OVCAR-3 ovarian and with SR leukemia was greater than 100 µM in each case.

Turning to `COc1cc2ccc1OCc1cccc(n1)COc1ccc(cc1OC)C=NCCNCCNCCN=C2`, the TGI in the test with A498 renal, in the test on CAKI-1 renal, in the test on HCC-2998 colon, in the test with HCT-15 colon, with M14 melanoma and in the test with MOLT-4 leukemia was greater than 100 µM each time. Besides, the TGI in the test with NCI-H23 lung, in the test on NCI/ADR-RES ovarian, in the test with OVCAR-3 ovarian and with SR leukemia was greater than 100 µM in each case.

Regarding `COc1ccc2c3c1OC1C34CCN(C)C(C2)C4=CC(I)C1(OC)OC` (stereo not given), the TGI worked out at 56.7 µM in the test with A498 renal; 25.6 µM in the test with CAKI-1 renal; 21.9 µM in the test on HCC-2998 colon; 27.8 µM with HCT-15 colon; 29.6 µM with M14 melanoma; 21.2 µM in the test with MOLT-4 leukemia. Besides, the TGI in the test with NCI-H23 lung is 21.1 µM; in the test with NCI/ADR-RES ovarian, greater than 100 µM; with OVCAR-3 ovarian, 18.5 µM; in the test on SR leukemia it was 10.2 µM.

Turning to `C(=Nc1ccc(-c2nc3ccccc3[nH]2)cc1)c1ccco1`, the TGI in the test with A498 renal, in the test on CAKI-1 renal, with HCC-2998 colon, in the test with HCT-15 colon, with M14 melanoma and in the test with MOLT-4 leukemia was greater than 100 µM throughout. Further, the TGI in the test with NCI-H23 lung, in the test with NCI/ADR-RES ovarian, in the test with OVCAR-3 ovarian and in the test with SR leukemia was greater than 100 µM in each case.

The record behind these values is PubChem BioAssay (NCI).
